The source made the active and inactive calls.
Tests used:
[1] = target: Heat shock protein HSP 90-alpha (Homo sapiens, UniProt P07900); format: functional, organism-based
Cytochrome P450 2D6 = Cytochrome P450 2D6 (Homo sapiens, UniProt P10635);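 note: CYP2D6 member of a cytochrome P450 panel assay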
Cytochrome P450 3A4 = Cytochrome P450 3A4 (Homo sapiens, UniProt P08684);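 note: CYP3A4 tested as one member of a cytochrome P450 panel screen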
Cytochrome P450 2C9 = Cytochrome P450 2C9 (Homo sapiens, UniProt P11712)
[2] = target: T1, Short transient receptor potential channel 4 (Mus musculus, UniProt Q9QUQ5); test: calcium entry via TRPC4 opening agents – cell-based, HEK293 TRPC4/mu-opioid, Fluo-4 calcium, dose response (AID 434937); format: functional
T1 sequence (Q9QUQ5 whole entry): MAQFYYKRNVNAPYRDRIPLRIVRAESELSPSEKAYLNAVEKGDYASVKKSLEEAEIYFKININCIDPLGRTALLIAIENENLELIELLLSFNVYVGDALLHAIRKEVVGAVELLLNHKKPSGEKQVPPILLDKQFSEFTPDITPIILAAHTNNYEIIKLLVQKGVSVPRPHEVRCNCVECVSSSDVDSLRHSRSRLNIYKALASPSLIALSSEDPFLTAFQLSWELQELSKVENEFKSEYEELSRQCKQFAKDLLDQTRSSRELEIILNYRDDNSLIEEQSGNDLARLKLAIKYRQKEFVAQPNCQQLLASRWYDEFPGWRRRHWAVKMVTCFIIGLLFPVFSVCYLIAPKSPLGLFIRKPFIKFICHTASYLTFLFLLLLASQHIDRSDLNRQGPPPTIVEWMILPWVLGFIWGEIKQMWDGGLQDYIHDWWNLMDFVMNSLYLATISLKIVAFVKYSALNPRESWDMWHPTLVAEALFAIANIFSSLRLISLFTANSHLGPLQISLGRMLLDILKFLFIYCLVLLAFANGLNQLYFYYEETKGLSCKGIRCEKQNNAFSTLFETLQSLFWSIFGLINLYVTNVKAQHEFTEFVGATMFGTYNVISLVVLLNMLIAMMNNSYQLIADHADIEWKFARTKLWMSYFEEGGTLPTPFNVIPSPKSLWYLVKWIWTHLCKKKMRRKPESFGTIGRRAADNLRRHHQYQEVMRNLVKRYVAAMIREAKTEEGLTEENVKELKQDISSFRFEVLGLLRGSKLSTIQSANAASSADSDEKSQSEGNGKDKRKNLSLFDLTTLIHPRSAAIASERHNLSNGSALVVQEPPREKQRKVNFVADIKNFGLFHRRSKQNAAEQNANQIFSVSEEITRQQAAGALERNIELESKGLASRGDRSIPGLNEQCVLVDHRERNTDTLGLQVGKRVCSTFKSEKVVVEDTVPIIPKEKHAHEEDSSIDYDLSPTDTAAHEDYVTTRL

P388/ADR = test: cells; format: functional; details: Mus musculus
SN12K1 = test: cells; format: functional; details: Homo sapiens
P388 = test: cells; format: functional; details: Mus musculus
Paired box protein Pax-8 = Paired box protein Pax-8 (Homo sapiens, UniProt Q06710); test: PAX8 transcriptional activity inhibition in RMG-I – RMG-I cells, luciferase, cherry-pick, dose response (AID 687027); format: functional, cell-based;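 note: luciferase reporter driven by Pax8 target thyroperoxidase promoter measured by SteadyGlo luminescence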
Vero = test: cells; format: functional; details: Chlorocebus sabaeus
BJ [3] = test: BJ-TERT fibroblast viability loss – cell-based, RAS-independent, luminescence, dose response (AID 1933); format: functional; details: Homo sapiens
BJ [4] = test: cells; format: functional, cell-based; details: Homo sapiens
BJ [5] = test: BJ-TERT-LT-ST fibroblast viability loss – cell-based, RAS-independent, luminescence, dose response (AID 1935); format: functional; details: Homo sapiens;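 note: BJ fibroblasts immortalized with TERT plus LT and ST oncogenes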
[6] = DRD fibroblast viability loss – cell-based, non-viral oncogenic, luminescence, dose response (AID 1934); format: functional; details: Homo sapiens
[7] = Luminescence Cell-Based Dose Confirmation HTS to Identify Activators of 5'UTR Stem-Loop Driven Alpha-Synuclein mRNA Translation in H4 Neuroglioblastoma Cells. [Related pubchem assays: 1829 (Project Summary), 1814 (Primary HTS)]; format: functional
[8] = Luminescence Cell-Based Dose Response HTS to Identify Activators of Luciferase Translation or Activity in H4 […] Cells. [Related pubchem assays: 1829 (Project Summary), 1814 (Primary HTS)]; format: functional
H4 = test: Luminescence Cell-Based Dose Response HTS to Identify Activators of 5'UTR Stem-Loop Driven Prion Protein mRNA Translation in H4 Neuroglioblastoma Cells. [Related pubchem assays: 1829 (Project Summary), 1814 (Primary HTS)]; format: functional; details: Homo sapiens
[9] = target: T2, Low molecular weight phosphotyrosine protein phosphatase (Homo sapiens, UniProt P24666); format: functional; details: read-out: IC50_Mean;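 note: Dose-response confirmation assay measuring inhibition of LMPTP enzyme activity by fluorescence intensity read-out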
T2 sequence (P24666 whole entry): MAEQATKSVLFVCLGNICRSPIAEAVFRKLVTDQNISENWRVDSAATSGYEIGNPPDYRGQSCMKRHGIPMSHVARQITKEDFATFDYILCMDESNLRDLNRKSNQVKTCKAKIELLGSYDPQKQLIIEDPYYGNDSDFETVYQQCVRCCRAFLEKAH

Chain of Cytochrome P450 3A4 (P08684 whole entry): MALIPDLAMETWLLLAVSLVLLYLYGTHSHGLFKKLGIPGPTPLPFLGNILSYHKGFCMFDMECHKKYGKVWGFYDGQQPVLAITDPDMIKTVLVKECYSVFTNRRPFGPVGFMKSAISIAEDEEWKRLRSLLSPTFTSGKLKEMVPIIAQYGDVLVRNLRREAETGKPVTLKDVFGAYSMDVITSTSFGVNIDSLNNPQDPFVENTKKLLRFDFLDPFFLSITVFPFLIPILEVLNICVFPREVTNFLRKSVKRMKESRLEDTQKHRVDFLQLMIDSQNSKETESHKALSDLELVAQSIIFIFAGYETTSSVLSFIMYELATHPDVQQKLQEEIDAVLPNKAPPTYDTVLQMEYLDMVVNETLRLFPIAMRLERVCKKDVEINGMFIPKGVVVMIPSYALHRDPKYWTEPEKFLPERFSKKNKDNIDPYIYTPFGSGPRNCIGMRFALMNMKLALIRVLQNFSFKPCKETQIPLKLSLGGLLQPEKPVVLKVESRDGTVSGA
Chain of Cytochrome P450 2C9 (P11712 whole entry): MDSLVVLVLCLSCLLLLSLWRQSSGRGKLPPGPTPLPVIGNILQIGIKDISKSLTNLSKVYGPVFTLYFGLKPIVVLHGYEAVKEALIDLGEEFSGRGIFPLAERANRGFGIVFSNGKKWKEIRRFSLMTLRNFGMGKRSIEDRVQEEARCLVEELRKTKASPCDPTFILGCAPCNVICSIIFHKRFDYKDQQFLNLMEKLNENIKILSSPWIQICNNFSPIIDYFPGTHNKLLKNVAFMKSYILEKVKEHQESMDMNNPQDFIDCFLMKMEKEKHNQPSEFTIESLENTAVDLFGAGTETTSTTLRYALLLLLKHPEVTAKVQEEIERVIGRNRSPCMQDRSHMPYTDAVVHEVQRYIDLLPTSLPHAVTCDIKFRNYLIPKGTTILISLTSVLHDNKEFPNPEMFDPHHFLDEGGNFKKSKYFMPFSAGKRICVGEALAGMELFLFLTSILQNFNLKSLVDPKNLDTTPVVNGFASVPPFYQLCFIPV
Chain of Cytochrome P450 2D6 (P10635 whole entry): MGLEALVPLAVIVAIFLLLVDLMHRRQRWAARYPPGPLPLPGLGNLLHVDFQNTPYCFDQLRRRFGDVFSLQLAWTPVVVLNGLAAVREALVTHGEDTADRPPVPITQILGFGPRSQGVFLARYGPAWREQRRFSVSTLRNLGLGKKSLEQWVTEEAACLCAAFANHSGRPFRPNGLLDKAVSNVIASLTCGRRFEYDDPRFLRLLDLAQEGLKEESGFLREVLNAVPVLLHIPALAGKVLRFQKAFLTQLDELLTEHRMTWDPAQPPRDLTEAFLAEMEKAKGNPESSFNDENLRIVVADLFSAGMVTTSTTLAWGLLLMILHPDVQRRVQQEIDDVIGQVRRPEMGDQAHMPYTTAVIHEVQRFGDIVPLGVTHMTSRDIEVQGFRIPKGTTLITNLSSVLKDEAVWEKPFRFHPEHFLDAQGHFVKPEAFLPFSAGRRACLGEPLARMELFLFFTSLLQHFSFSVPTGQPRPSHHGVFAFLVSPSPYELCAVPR
Chain of Paired box protein Pax-8 (Q06710 whole entry): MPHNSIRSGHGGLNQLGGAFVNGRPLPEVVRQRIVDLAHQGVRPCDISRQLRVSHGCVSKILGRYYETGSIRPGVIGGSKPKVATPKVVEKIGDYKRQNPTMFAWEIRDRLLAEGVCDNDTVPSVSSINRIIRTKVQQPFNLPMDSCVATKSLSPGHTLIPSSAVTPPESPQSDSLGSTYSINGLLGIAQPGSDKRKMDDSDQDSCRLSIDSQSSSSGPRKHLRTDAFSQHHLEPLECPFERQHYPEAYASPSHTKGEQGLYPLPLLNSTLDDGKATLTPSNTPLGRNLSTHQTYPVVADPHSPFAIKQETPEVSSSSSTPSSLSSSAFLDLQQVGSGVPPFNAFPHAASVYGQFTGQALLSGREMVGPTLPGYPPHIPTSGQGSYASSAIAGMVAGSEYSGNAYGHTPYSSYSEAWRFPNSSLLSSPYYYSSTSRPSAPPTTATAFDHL

O=C1CCCN1CCC1CCN(C2CC(=O)N(c3ccc(Cl)cc3)C2=O)CC1 (centres undefined)
AC50 [1]: 7.56 µM (active)

O=C(c1cnn(-c2ccccc2)c1)c1ccc2ccccc2c1O
AC50 (Cytochrome P450 2D6): 7.08 µM (inconclusive) | AC50 (Cytochrome P450 3A4): 17.8 µM (inconclusive) | AC50 (Cytochrome P450 2C9): inconclusive

Cn1c(N2CCN(C(=O)Nc3ccc(F)cc3)CC2)nc2ccccc21
EC50 [2]: 6.68 µM (active)

C=Cc1cc(OC)c2c(c1)c(=O)oc1c2cc(OC)c2c(O)ccc(C3OC(C)C(O)C(C)(O)C3O)c21 (centres undefined)
GI50 (P388/ADR): 0.0225 µM (active) | GI50 (SN12K1): 0.0269 µM (active) | GI50 (P388): 0.0225 µM (active) | AC50 (Paired box protein Pax-8): < 0.26 µM (active)

CCOC(=O)C1=C(N)N=C(N)C1=Nc1ccc(OC)cc1
CC50 (Vero): 11.1 µM (active)

C=C1CCCC(C)(C)[C@@H]1CC/C(C)=C/Cn1c2cccc(=O)c-2nc2ccccc21
GI50 (P388/ADR): 0.229 µM (active) | GI50 (SN12K1): 1.48 µM (inactive) | GI50 (P388): 0.569 µM (active)

CCCCCCCCCCCC1CCCC(C)N1 (centres undefined)
GI50 (P388/ADR): 12.4 µM (inactive) | GI50 (SN12K1): 28.3 µM (inactive) | GI50 (P388): 10.5 µM (inactive)

C[C@@]12CC[C@H]3[C@@H]4CCC(=O)N[C@@]4(C)CC[C@@H]3[C@@]1(C)CC[C@H](OC(=O)Cc1ccc(N(CCCl)CCCl)cc1)C2
GI50 (P388/ADR): 14.7 µM (inactive) | GI50 (SN12K1): 16.9 µM (inactive) | GI50 (P388): 10.6 µM (inactive)

Cc1cc(-c2ccc(/N=N/c3ccc4c(S(=O)(=O)O)cc(S(=O)(=O)O)c(N)c4c3O)c(C)c2)ccc1/N=N/c1ccc2c(S(=O)(=O)O)cc(S(=O)(=O)O)c(N)c2c1O
GI50 (P388/ADR): > 100 µM (inactive) | GI50 (SN12K1): > 100 µM (inactive) | GI50 (P388): > 100 µM (inactive)

CC(/C=N/NC(=O)c1[nH]nc2c1CCC2)=C\c1ccccc1
EC50 (BJ [3]): 0.346 µM (inconclusive) | EC50 (BJ [4]): 25.5 µM (inconclusive) | EC50 (BJ [5]): 1.03 µM (inconclusive) | EC50 [6]: 0.43 µM (active) | CC50 (Vero): < 0.05 µM (active)

CCn1cc(C(=O)O)c(=O)c2cnc(N3CCN(C(=S)Nc4ccccc4Cl)CC3)nc21
EC50 [7]: > 120 µM (not active) | EC50 [8]: > 120 µM (not active) | EC50 (H4): > 120 µM (not active) | IC50 [9]: 35.9 µM (inactive)

O=c1n(CC2CO2)c(=O)n(CC2CO2)c(=O)n1CC1CO1 (centres undefined) [TEROXIRONE]
GI50 (P388/ADR): 1.91 µM (inactive) | GI50 (SN12K1): 35.6 µM (inactive) | GI50 (P388): 1.61 µM (inactive)

From ChEMBL document CHEMBL1201862, “PubChem BioAssay data set” (2004)
